36 molecules from US8999967B2, “Tricyclic fused ring inhibitors of hepatitis C” (Presidio Pharmaceuticals, Inc., priority 2010, dated 2015) can be followed below.

This experiment has as its system HCV 1b_Huh-Luc/Neo-ET cell line (genotype 1b replicon in Huh 7 cells). The experiment can be described thus: HCV replicon assay (luciferase readout). Type of experiment: cell-based. The following applies: Hepatitis C virus, HCV 1b replicon in Huh 7 cells, 72 h incubation, EC50 range class, read-out: Inhibition of HCV genotype 1b. As to the method: Biological activity of the compounds of the invention was determined using an HCV replicon assay. The HCV 1b_Huh-Luc/Neo-ET cell line persistently expressing a bicistronic genotype 1b replicon in Huh 7 cells was obtained from ReBLikon GMBH. This cell line was used to test compound inhibition using luciferase enzyme activity readout as a measurement of compound inhibition of replicon levels.
On Day 1 (the day after plating cells), each compound is added in triplicate to the cells. Plates are incubated for 72 h prior to determining luciferase levels. Enzyme activity was measured using a Bright-Glo Kit (cat. number E2620) manufactured by Promega Corporation. The following equation was used to generate a percent control value for each compound. % Control=(Compound Luciferase Level/Control Luciferase Level)*100
The EC50 value was determined using GraphPad Prism and the following equation: Y=Bottom asymptote+(Top asymptote-Bottom asymptote)/(1+10^((Log EC50−X)*HillSlope))
EC50 values of compounds are determined several times in the replicon assay to generate average EC50 values. […]
For orientation: In antiviral work, replicon cells carry a viral genome segment that copies itself.
For `COC(=O)N[C@H](C(=O)N1CCC[C@H]1c1ncc(-c2ccc3oc4cc(-c5cnc([C@@H]6CCCN6C(=O)[C@@H](NC(=O)OC)C6CCOCC6)[nH]5)c(F)cc4c(=O)c3c2)[nH]1)C1CCOCC1` [Example 23], the EC50 is under 1 nM. `COC(=O)N[C@H](C(=O)N1CCC[C@H]1c1ncc(-c2ccc3c(=O)c4cc(-c5cnc([C@@H]6CSCN6C(=O)[C@@H](NC(=O)OC)C(C)C)[nH]5)ccc4oc3c2)[nH]1)C(C)C` [Compound 122]: the EC50 is under 1 nM. Consider `COC(=O)N[C@H](C(=O)N1CCC[C@H]1c1ncc(-c2ccc3c(c2)Oc2ccc(-c4cnc([C@@H]5CCCN5C(=O)[C@@H](NC(=O)OC)C(C)C)[nH]4)cc2C(=O)N3)[nH]1)C(C)C` [Example 14], for which the EC50 lay in the range of 10 to 999 nM.

Turning to `CC(C)(C)OC(=O)N1CCC[C@H]1c1ncc(-c2ccc3c(=O)c4cc(-c5cnc([C@@H]6CCCN6C(=O)OC(C)(C)C)[nH]5)ccc4oc3c2)[nH]1` [Example 9], the EC50 fell in the range of 10 to 999 nM.

Consider `COC(=O)N[C@H](C(=O)N1CCC[C@H]1c1ncc(-c2ccc3oc4cc(-c5cnc([C@@H]6CCCN6C(=O)[C@@H](NC(=O)OC)C6CCOCC6)[nH]5)c(Cl)cc4c(=O)c3c2)[nH]1)C1CCOCC1` [Compound 52], for which the EC50 was under 1 nM. As to `COC[C@H](NC(=O)OC)C(=O)N1CCC[C@H]1c1ncc(-c2ccc3c(c2)Cc2cc(F)c(-c4cnc([C@@H]5CCCN5C(=O)[C@@H](NC(=O)OC)[C@@H](C)OC)[nH]4)cc2O3)[nH]1` [Compound 43], the EC50 was under 1 nM.

Consider `COC(=O)N[C@H](C(=O)N1CCC[C@H]1c1ncc(-c2ccc3c(=O)c4cc(-c5cnc([C@@H]6CCCN6C(=O)[C@H](NC(=O)OC6CCOCC6)c6ccccc6)[nH]5)ccc4oc3c2)[nH]1)C(C)C` [Example 19], for which the EC50 is under 1 nM.

As to `COC(=O)N[C@H](C(=O)N1CCC[C@H]1c1ncc(-c2ccc3c(c2)Oc2ccc(-c4cnc([C@@H]5CCCN5C(=O)[C@@H](NC(=O)OC)C5CCCC5)[nH]4)cc2O3)[nH]1)C1CCCC1` [Compound 33], the EC50 is under 1 nM. Then `COC(=O)N[C@H](C(=O)N1CCC[C@H]1c1ncc(-c2ccc3c(c2)c(=O)c2ccc(-c4cnc([C@@H]5CCCN5C(=O)[C@@H](NC(=O)OC)C(C)C)[nH]4)cc2n3C)[nH]1)C(C)C` [Example 11], with under 1 nM. The figure for `COC(=O)N[C@H](C(=O)N1CCC[C@H]1c1ncc(-c2ccc3c(c2)Cc2ccc(-c4cnc([C@@H]5CCCN5C(=O)[C@@H](NC(=O)OC)[C@@H](C)OC)[nH]4)cc2O3)[nH]1)[C@@H](C)OC` [Compound 30] is under 1 nM; for `CC[C@H](C)[C@H](NC(=O)OC)C(=O)N1CCC[C@H]1c1ncc(-c2cc3c(cc2F)Cc2cc(-c4cnc([C@@H]5CCCN5C(=O)[C@H](COC)NC(=O)OC)[nH]4)ccc2O3)[nH]1` [Compound 60] it is under 1 nM. As for `O=C(N[C@@H](C(=O)N1CCC[C@H]1c1ncc(-c2ccc3oc4cc(-c5cnc([C@@H]6CCCN6C(=O)[C@H](NC(=O)OC6CCOCC6)c6ccccc6)[nH]5)c(F)cc4c(=O)c3c2)[nH]1)c1ccccc1)OC1CCOCC1` [Example 25], the EC50 was under 1 nM.

`[2H]C([2H])([2H])C([2H])(C([2H])([2H])[2H])[C@]([2H])(NC(=O)OC)C(=O)N1CCC[C@H]1c1ncc(-c2ccc3c(c2)Oc2ccc(-c4cnc([C@@H]5CCCN5C(=O)[C@@]([2H])(NC(=O)OC)C([2H])(C([2H])([2H])[2H])C([2H])([2H])[2H])[nH]4)cc2O3)[nH]1` [Compound 57]: the EC50 is under 1 nM. The figure for `CC[C@H](C)[C@H](NC(=O)OC)C(=O)N1CCC[C@H]1c1ncc(-c2ccc3c(c2)Cc2cc(Cl)c(-c4cnc([C@@H]5CCCN5C(=O)[C@@H](NC(=O)OC)[C@@H](C)CC)[nH]4)cc2O3)[nH]1` [Compound 63] is under 1 nM. Turning to `COC(=O)N[C@H](C(=O)N1CCC[C@H]1c1ncc(-c2ccc3c(c2)C(C)(C)c2ccc(-c4ccc5nc([C@@H]6CCCN6C(=O)[C@@H](NC(=O)OC)C(C)C)[nH]c5c4)cc2O3)[nH]1)C(C)C` [Compound 133], the EC50 is under 1 nM. On to `COC(=O)N[C@H](C(=O)N1CCC[C@H]1c1ncc(-c2ccc3c(c2)Oc2ccc(-c4cnc([C@@H]5CCCN5C(=O)[C@@H](NC(=O)OC)C5CCOCC5)[nH]4)cc2O3)[nH]1)C1CCOCC1` [Compound 35], for which the EC50 is under 1 nM. `COC(=O)N[C@H](C(=O)N1CCC[C@H]1c1ncc(-c2ccc3oc4cc(-c5cnc([C@@H]6CCCN6C(=O)[C@@H](NC(=O)OC)[C@@H](C)OC)[nH]5)c(Cl)cc4c(=O)c3c2)[nH]1)[C@@H](C)OC` [Compound 50]: the EC50 was under 1 nM. As for `COC(=O)N[C@@H](C(=O)N1CCC[C@H]1c1ncc(-c2ccc3c(c2)Cc2cc(-c4cnc([C@@H]5CCCN5C(=O)[C@H](NC(=O)OC)c5ccccc5)[nH]4)ccc2O3)[nH]1)c1ccccc1` [Example 5], the EC50 is under 1 nM. Then `COC(=O)N[C@H](C(=O)N1CCC[C@H]1c1ncc(-c2ccc3c(c2)Oc2ccc(-c4cnc([C@@H]5CSCN5C(=O)[C@@H](NC(=O)OC)C(C)C)[nH]4)cc2C3)[nH]1)C(C)C` [Compound 124], with under 1 nM.

Regarding `COC(=O)N[C@H](C(=O)N1CCC[C@H]1c1ncc(-c2ccc3c(c2)C(C)(C)c2ccc(-c4ccc5nc([C@@H]6CCCN6C(=O)[C@@H](NC(=O)OC)C6CCOCC6)[nH]c5c4)cc2O3)[nH]1)C1CCOCC1` [Compound 149], the EC50 is under 1 nM. The figure for `COC(=O)N[C@H](C(=O)N1CCC[C@H]1c1ncc(-c2ccc3c(c2)Oc2ccc(-c4cnc([C@@H]5CCCN5C(=O)[C@@H](NC(=O)OC)C5CCOCC5)[nH]4)cc2C3(C)C)[nH]1)C1CCOCC1` [Compound 75] is under 1 nM. For `COC(=O)N[C@H](C(=O)N1CCC[C@H]1c1ncc(-c2ccc3c(c2)CN(C)c2ccc(-c4cnc([C@@H]5CCCN5C(=O)[C@@H](NC(=O)OC)C(C)C)[nH]4)cc2CN3C)[nH]1)C(C)C` [Example 13], the EC50 is under 1 nM. For `CC[C@H](C)[C@H](NC(=O)OC)C(=O)N1CCC[C@H]1c1ncc(-c2ccc3c(c2)Oc2ccc(-c4cnc([C@@H]5CCCN5C(=O)[C@@H](NC(=O)OC)[C@@H](C)CC)[nH]4)cc2O3)[nH]1` [Compound 46], the EC50 was under 1 nM. Then `COC(=O)N[C@H](C(=O)N1CCC[C@H]1c1ncc(-c2ccc3oc4cc(-c5cnc([C@@H]6CCCN6C(=O)[C@@H](NC(=O)OC)C(C)C)[nH]5)c(C)cc4c(=O)c3c2)[nH]1)C(C)C` [Compound 126], with under 1 nM.

In the case of `CC[C@H](C)[C@H](NC(=O)OC)C(=O)N1CCC[C@H]1c1ncc(-c2ccc3oc4cc(-c5ccc6nc([C@@H]7CCCN7C(=O)[C@@H](NC(=O)OC)[C@@H](C)OC)[nH]c6c5)ccc4c(=O)c3c2)[nH]1` [Compound 145], the EC50 was under 1 nM.

`CC[C@H](C)[C@H](NC(=O)OC)C(=O)N1CCC[C@H]1c1ncc(-c2ccc3c(=O)c4cc(-c5cnc([C@@H]6COCCN6C(=O)[C@@H](NC(=O)OC)[C@@H](C)CC)[nH]5)ccc4oc3c2)[nH]1` [Compound 130]: the EC50 was under 1 nM. Then `COC(=O)N[C@H](C(=O)N1CCC[C@H]1c1ncc(-c2ccc3c(c2)Cc2ccc(-c4cnc([C@@H]5CCCN5C(=O)[C@@H](NC(=O)OC)C(C)C)[nH]4)cc2O3)[nH]1)C(C)C` [Example 6], with under 1 nM; and `CC[C@H](C)[C@H](NC(=O)OC)C(=O)N1CCC[C@H]1c1ncc(-c2ccc3c(c2)Cc2ccc(-c4cnc([C@@H]5CCCN5C(=O)[C@@H](NC(=O)OC)[C@@H](C)CC)[nH]4)cc2O3)[nH]1` [Compound 31], with under 1 nM; and `COC(=O)N[C@H](C(=O)N1CCCC[C@H]1c1ncc(-c2ccc3oc4cc(-c5cnc([C@@H]6CCCN6C(=O)[C@@H](NC(=O)OC)[C@@H](C)OC)[nH]5)ccc4c(=O)c3c2)[nH]1)[C@@H](C)OC` [Compound 140], with under 1 nM. The figure for `CC[C@H](C)[C@H](NC(=O)OC)C(=O)N1CCC[C@H]1c1ncc(-c2ccc3c(c2)Oc2ccc(-c4cnc([C@@H]5CSCN5C(=O)[C@@H](NC(=O)OC)[C@@H](C)CC)[nH]4)cc2C3)[nH]1` [Compound 125] is under 1 nM; for `COC(=O)N[C@H](C(=O)N1CCC[C@H]1c1ncc(-c2ccc3oc4cc(-c5cnc([C@@H]6CCCN6C(=O)[C@@H](NC(=O)OC)C(C)C)[nH]5)c(Cl)cc4c(=O)c3c2)[nH]1)C(C)C` [Compound 49] it is under 1 nM. Then `COC(=O)N[C@H](C(=O)N1CCC[C@H]1c1ncc(-c2ccc3c(=O)c4cc(-c5cnc([C@@H]6CCCN6C(=O)[C@@H](NC(=O)OC)C(C)C)[nH]5)ccc4oc3c2)[nH]1)C(C)C` [Example 8], with under 1 nM; and `COC(=O)N[C@@H](C(=O)N1CCC[C@H]1c1ncc(-c2ccc3c(=O)c4cc(-c5cnc([C@@H]6CSCN6C(=O)[C@H](NC(=O)OC)c6ccccc6)[nH]5)ccc4oc3c2)[nH]1)c1ccccc1` [Compound 121], with under 1 nM. For the molecule `CC[C@H](C)[C@H](NC(=O)OC)C(=O)N1CCC[C@H]1c1ncc(-c2ccc3oc4cc(-c5cnc([C@@H]6CCCN6C(=O)[C@@H](NC(=O)OC)[C@@H](C)CC)[nH]5)c(Cl)cc4c(=O)c3c2)[nH]1` [Compound 51], the EC50 is under 1 nM.

Regarding `COC(=O)N[C@@H](C(=O)N1CCCC[C@H]1c1ncc(-c2ccc3c(c2)Oc2ccc(-c4cnc([C@@H]5CCCCN5C(=O)[C@H](NC(=O)OC)c5ccccc5)[nH]4)cc2O3)[nH]1)c1ccccc1` [Compound 48], the EC50 was under 1 nM. Then `CC[C@H](C)[C@H](NC(=O)OC)C(=O)N1CCC[C@H]1c1ncc(-c2ccc3c(c2)Oc2ccc(-c4cnc([C@@H]5CCCN5C(=O)[C@@H](NC(=O)OC)[C@@H](C)CC)[nH]4)cc2C3(C)C)[nH]1` [Compound 70], with under 1 nM.
